Measured values published in article PMC9096165 (Frontiers in Pharmacology, 2022).
Like-named read-outs stand apart in the source and are kept apart here.

Key:
[1] = Pharmacokinetics after single intravenous and oral administration; type: in vivo, male Wistar Han rats
Description: Pharmacokinetics of DF2755A, dissolved in saline solution (NaCl 0.9% w/v), was investigated after single intravenous and oral administrations in male Wistar Han rats. DF2755A was given as a single dose in three animals/group by intravenous (bolus) and oral (by gavage) administrations at a dose of 20 mg/kg. Pharmacokinetic evaluation was carried out on blood samples collected on day 1 at six time points from three animals/group (serial sampling).

[2] = tested on: panel of GPCRs, enzymes, ion channels, transporters, and nuclear receptors; experiment: Safety screen off-target panel (Eurofins Cerep SafetyScreen44); type: binding; conditions: tested at 10 μM; all the receptors studied
Description: Selectivity assays were performed at Eurofins Cerep as a contract service. A summary of the protocol and the reference for the assays are listed on the Eurofins Cerep website at (https://www.eurofinsdiscoveryservices.com/catalogmanagement/viewItem/SafetyScreen44-Panel-Cerep/P270). The tested targets are listed below:
GPCRs: A2A (agonist radioligand), α1A (antagonist radioligand), α2A (antagonist radioligand), β1 (agonist radioligand), β2 (agonist radioligand), BK1 (antagonist and agonist radioligand), BK2 (antagonist and agonist radioligand), CB1 (antagonist and agonist radioligand), CB2 (antagonist and agonist radioligand), CCK1 (CCKA) (agonist radioligand), D1 (antagonist radioligand), D2 (antagonist and agonist radioligand), D3 (antagonist and agonist radioligand), ETA (agonist radioligand), H1 (antagonist radioligand), H2 (antagonist radioligand), M1 (antagonist radioligand), M2 (antagonist and agonist radioligand), M3 (antagonist radioligand), NK1 (agonist radioligand), δ (DOP) (agonist radioligand), κ(KOP) (agonist radioligand), µ(MOP) (agonist radioligand), ORL1 (agonist radioligand), 5-HT1A (agonist radioligand), 5-HT1B (antagonist radioligand), 5-HT2A (agonist radioligand), 5-HT2B (agonist radioligand), and V1a (agonist radioligand). […]

[3] = Tissue distribution by quantitative whole-body autoradiography; type: in vivo, female SD rats; conditions: at tmax (2 h after dosing), oral 20 mg/kg
Description: Tissue distribution was performed by quantitative whole-body autoradiography (QWBA). At the selected time points (2, 6, 12, 24, 48, 120, and 168 h post-oral administration of the compound), animals (n = 6) were killed using an overdose of carbon dioxide, followed by immediate snap freezing in a hexane/solid carbon dioxide mixture. Each carcass was subjected to WBA using procedures based on the work of [Waddell and Brinkhous (1967)]. Sections were taken at up to six different levels of the rat body to include as many tissues as possible (a minimum of 30). Distribution of radioactivity in the sections was determined and quantified by bioimage analysis.

CXCR2 = tested on: CXCR2; design: method as in Lopes et al., 2016; conditions: ref Lopes et al., 2016; cited from earlier work
[4] = Routes and rates of excretion after single oral [14C]DF2755A; type: in vivo; conditions: single oral 20 mg/kg, female SD rats
Description: Prior to administration and for acclimatization, animals (n = 6) were transferred to individual metabolic cages and were left therein for the duration of the study except for a short period during dosing. The metabolic cages were specifically designed for the separate collection of urine and feces. The preparation of dose formulation was performed on the day of experiment. The test item was dissolved in the appropriate volume of saline solution (NaCl, 0.9% w v^−1) to achieve the dose volume of 5 ml kg^−1. The resulting solution was then administered via a gavage fed down the esophagus to enable the formulation to be dispensed directly into the stomach.
Radioactivity was extracted from the selected feces and urine homogenate pools with appropriate solvents based on methodology developed at Quotient (Rushden) Ltd. and analyzed by quantitative radioactivity analysis (QRA).

TRPM8 = TRPM8 (Homo sapiens, UniProt Q7Z2W7); experiment: Ion channel assay, agonist and antagonist mode; type: biochemical; conditions: up to 100 μM (maximum tested concentration)
Sequence of TRPM8 (Q7Z2W7 whole entry, species assumed): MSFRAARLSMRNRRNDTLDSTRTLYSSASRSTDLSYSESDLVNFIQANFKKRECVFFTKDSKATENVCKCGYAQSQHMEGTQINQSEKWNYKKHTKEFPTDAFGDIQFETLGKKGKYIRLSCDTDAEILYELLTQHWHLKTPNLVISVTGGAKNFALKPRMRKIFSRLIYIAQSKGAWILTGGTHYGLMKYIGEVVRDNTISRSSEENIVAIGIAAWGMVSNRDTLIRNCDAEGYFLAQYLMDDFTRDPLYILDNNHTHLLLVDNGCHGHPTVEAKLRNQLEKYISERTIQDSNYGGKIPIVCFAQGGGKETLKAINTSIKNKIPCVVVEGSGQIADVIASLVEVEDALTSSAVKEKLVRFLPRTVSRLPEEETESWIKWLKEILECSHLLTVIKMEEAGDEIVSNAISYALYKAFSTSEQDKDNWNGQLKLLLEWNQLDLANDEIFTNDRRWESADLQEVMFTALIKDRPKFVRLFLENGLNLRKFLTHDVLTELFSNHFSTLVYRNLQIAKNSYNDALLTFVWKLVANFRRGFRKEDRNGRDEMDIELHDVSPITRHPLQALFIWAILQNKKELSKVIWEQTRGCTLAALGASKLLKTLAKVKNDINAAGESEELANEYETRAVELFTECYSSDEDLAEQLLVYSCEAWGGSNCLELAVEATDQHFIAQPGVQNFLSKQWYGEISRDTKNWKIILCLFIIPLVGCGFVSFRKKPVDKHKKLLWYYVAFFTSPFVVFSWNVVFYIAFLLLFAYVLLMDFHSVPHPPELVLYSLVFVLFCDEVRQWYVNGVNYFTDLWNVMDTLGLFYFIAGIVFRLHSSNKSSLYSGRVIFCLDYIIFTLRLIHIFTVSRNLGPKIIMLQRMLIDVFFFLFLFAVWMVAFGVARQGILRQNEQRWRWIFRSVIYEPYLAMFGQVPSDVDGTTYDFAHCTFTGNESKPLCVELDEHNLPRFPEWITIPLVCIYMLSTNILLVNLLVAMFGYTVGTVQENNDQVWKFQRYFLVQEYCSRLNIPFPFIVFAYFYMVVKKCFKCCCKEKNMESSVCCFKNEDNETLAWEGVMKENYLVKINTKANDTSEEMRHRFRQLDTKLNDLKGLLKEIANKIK
Description: (§1) In addition, DF2755A was tested on TRPM8, TRPV1, TRPV4, TRPA1, and Nav1.7 ion channels in agonist and antagonist mode at eight concentrations in quadruplicate (100 μM was the highest tested concentration).

Nav1.7 = Nav1.7 (Homo sapiens, UniProt Q15858); experiment: Ion channel assay, agonist and antagonist mode; type: biochemical; conditions: up to 100 μM (maximum tested concentration)
Sequence of Nav1.7 (Q15858 whole entry): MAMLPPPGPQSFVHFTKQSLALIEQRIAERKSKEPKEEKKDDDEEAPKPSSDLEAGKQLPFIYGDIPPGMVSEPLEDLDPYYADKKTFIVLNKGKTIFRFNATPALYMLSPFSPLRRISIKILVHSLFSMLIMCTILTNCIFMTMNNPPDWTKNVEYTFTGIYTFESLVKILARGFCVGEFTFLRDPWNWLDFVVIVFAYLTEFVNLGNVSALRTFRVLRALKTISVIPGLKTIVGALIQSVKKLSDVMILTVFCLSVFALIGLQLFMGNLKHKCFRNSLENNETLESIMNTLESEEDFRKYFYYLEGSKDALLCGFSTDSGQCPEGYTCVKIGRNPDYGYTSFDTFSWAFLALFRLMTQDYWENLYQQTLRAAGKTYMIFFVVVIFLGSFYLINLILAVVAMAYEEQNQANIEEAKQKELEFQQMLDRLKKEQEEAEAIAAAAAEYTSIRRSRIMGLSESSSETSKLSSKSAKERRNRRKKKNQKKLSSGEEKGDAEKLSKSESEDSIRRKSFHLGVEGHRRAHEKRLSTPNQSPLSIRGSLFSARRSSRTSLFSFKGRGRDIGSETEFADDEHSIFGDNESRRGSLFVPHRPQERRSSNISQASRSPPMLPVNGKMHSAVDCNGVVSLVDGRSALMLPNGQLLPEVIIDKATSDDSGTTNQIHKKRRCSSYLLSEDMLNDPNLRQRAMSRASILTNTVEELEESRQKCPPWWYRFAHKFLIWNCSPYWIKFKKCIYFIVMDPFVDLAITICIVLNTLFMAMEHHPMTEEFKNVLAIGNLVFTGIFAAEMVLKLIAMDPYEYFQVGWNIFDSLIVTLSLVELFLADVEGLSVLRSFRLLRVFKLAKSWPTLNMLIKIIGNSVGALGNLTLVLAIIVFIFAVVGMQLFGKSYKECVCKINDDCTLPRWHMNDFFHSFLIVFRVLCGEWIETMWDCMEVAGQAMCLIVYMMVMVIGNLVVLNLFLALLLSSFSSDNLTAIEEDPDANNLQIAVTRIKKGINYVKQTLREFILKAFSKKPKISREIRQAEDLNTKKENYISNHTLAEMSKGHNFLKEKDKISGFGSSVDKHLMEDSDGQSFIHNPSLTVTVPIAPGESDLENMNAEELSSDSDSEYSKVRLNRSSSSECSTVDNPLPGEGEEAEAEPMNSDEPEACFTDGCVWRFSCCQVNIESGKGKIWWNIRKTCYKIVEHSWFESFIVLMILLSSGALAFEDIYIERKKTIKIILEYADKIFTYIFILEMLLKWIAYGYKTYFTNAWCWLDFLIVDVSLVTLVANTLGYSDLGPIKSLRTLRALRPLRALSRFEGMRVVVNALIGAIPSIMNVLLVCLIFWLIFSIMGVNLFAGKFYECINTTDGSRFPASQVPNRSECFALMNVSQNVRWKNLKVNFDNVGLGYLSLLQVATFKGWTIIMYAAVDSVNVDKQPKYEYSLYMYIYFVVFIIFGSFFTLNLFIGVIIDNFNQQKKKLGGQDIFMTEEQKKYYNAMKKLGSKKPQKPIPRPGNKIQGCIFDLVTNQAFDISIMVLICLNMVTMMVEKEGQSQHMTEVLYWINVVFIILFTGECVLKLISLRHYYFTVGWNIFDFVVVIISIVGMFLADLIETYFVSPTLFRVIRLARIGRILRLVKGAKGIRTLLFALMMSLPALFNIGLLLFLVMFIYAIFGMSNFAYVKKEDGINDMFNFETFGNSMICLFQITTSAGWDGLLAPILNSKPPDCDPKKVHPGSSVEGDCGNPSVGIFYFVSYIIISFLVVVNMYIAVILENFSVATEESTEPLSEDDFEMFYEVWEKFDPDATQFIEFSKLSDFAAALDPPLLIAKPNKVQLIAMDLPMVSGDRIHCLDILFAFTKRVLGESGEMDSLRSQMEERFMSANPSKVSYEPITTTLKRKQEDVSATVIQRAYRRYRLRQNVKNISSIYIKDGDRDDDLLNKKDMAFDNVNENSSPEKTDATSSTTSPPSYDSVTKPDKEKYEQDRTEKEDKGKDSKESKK
Description: as §1

TRPV1 = TRPV1 (Homo sapiens, UniProt Q8NER1); experiment: Ion channel assay, agonist and antagonist mode; type: biochemical; conditions: up to 100 μM (maximum tested concentration)
Sequence of TRPV1 (Q8NER1 whole entry, species assumed): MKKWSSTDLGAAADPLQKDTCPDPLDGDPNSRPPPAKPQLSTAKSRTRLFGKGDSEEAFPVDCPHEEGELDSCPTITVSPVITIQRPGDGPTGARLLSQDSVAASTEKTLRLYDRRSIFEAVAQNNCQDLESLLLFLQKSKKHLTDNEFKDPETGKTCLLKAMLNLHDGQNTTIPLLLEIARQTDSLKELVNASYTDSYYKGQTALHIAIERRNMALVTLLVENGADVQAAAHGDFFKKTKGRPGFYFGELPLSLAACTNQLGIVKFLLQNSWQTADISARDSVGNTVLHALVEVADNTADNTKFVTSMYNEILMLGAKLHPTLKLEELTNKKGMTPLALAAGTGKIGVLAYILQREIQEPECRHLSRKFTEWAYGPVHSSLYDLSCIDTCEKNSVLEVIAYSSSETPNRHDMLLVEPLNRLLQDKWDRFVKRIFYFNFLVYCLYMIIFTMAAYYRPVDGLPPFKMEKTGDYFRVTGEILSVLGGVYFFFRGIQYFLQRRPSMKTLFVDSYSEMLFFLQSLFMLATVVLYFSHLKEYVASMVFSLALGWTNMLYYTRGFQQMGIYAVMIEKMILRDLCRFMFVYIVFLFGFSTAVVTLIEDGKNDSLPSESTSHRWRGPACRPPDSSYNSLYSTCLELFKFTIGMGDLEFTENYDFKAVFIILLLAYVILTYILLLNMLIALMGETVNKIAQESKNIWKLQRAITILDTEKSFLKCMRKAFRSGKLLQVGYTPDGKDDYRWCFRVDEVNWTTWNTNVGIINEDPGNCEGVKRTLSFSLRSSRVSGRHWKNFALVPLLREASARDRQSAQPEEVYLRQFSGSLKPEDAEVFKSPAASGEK
Description: as §1

TRPA1 = TRPA1 (Homo sapiens, UniProt O75762); experiment: Ion channel assay, agonist and antagonist mode; type: biochemical; conditions: up to 100 μM (maximum tested concentration)
Description: as §1

TRPV4 = TRPV4 (Homo sapiens, UniProt Q9HBA0); experiment: Ion channel assay, agonist and antagonist mode; type: biochemical; conditions: up to 100 μM (maximum tested concentration)
Sequence of TRPV4 (Q9HBA0 whole entry, species assumed): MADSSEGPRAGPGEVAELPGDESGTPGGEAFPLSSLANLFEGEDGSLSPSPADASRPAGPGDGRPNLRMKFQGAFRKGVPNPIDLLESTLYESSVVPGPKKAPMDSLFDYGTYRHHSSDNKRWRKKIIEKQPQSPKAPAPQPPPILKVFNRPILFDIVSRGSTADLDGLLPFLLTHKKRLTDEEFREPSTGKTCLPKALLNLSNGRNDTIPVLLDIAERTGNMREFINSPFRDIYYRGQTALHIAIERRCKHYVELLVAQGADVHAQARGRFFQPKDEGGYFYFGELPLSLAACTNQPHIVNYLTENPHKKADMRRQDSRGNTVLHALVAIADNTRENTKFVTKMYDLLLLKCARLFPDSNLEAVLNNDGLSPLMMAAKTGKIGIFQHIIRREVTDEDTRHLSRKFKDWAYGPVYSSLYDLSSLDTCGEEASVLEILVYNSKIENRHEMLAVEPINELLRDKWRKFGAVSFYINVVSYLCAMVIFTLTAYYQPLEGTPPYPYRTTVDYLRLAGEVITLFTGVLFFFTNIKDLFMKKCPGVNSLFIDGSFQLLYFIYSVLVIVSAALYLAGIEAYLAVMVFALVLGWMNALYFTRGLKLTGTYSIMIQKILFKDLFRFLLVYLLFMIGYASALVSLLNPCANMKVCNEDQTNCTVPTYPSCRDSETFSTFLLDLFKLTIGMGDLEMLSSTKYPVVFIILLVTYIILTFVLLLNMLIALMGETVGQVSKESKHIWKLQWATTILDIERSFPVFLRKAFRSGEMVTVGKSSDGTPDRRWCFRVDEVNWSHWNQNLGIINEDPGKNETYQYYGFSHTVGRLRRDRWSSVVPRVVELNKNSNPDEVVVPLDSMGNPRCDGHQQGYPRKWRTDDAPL
Description: as §1

urinary bladder = type: in vivo; conditions: preventive: 20 mg kg^−1 + 7 mg kg^−1 twice daily for 7 days; CYP rats
Description: CYP was administered to the animals by the intraperitoneal (i.p.) route (5 ml kg^−1) at the dosage of 75 mg kg^−1 for three times every third day to elicit chronic bladder irritation, as previously described ([Vizzard et al., 1996]).
Animals pre-treated with the vehicle or a single high oral dose of DF2755A (20 mg kg^−1; 12 h before the first CYP administration) followed by repeated lower doses administration (7 mg kg^−1 twice daily for 7 days) during IC development were deeply anesthetized with isoflurane (4%) and then killed.
After killing, rat abdomen was opened through a midline incision, and bladder and proximal urethra were exposed. A catheter was inserted into the bladder through the urethra and a loose ligature was placed around the neck of the urinary bladder. Bladder was inflated with saline via the catheter to slightly distend the bladder and ligature was tightened to maintain proper distension. Bladder was then excised cutting above the insertion point of ureters, and therefore the bladder neck was not included into the bladder sample. Bladders were opened using scissors and, after gross macroscopic evaluation and weighing, each bladder was cut into two equal pieces (named B1 and B2) and weighted again individually. One piece (B1) was placed in Eppendorf, then snap-frozen in liquid nitrogen, and stored at −80°C until quantification using ELISA assay. The second piece (B2) was placed in 10% formalin and stored at room temperature. Then the same samples were placed in 70% ethanol, then processed in paraffin blocks, and then trimmed according to the longitudinal plane to ensure the correct analysis of all the bladder sample. Sections were stained with hematoxylin and eosin (HE), and slides were then digitalized using a Pathscan® Touch scanner in the bright field mode with a ×20 objective. For the microscopic observations of bladder inflammation, the following parameters were analyzed: bladder edema in scores (n = 10/group), bladder hemorrhage in scores (n = 10/group), urothelial loss in scores (n = 10/group), and total inflammatory score, which was calculated by adding all the individual lesion scores (n = 10/group).

[5] = intravenous 20 mg kg^−1, male Wistar Han rats

C[C@H](C(=O)[O-])c1ccc(Nc2nc(C(F)(F)F)cs2)cc1.[Na+] [DF2755A, sodium (2S)-2-(4-{[4-(trifluoromethyl)-1,3-thiazol-2-yl]amino}phenyl)propanoate]
overall systemic exposure (AUC0-t (last)) [1, 5]: 578,017 ng/mlh | systemic clearance [1, 5]: slow | half-life ([1]; male, Wistar Han, rat, plasma, 20 mg/kg, route not stated, read-out: half-life (converted)): 408 min | bioavailability ([1]; rat, plasma, po, 20 mg/kg, male Wistar Han rats, read-out: oral absolute bioavailability (F%)): 86.2% | C0 ([1]; rat, plasma, intravenous 20 mg kg^−1, male Wistar Han rats, read-out: Plasma concentration at time zero (C0)): 117 µg/mL | half-life ([1]; rat, plasma, intravenous 20 mg kg^−1, male Wistar Han rats, read-out: t1/2,z (converted)): 486 min | Vd ([1]; rat, plasma, intravenous 20 mg kg^−1, male Wistar Han rats, read-out: volume of distribution at steady state): < 1 L/kg | Tmax ([1]; rat, plasma, oral 20 mg/kg, male Wistar Han rats): 2 h | Cmax ([1]; rat, plasma, oral 20 mg/kg, male Wistar Han rats, read-out: maximum plasma concentration (Cmax)): 43500 ng/mL | AUC(0-t) ([1]; rat, plasma, oral 20 mg/kg, male Wistar Han rats, read-out: overall systemic exposure (AUC0-t (last))): 498 µg·h/mL | distribution volume ([1]; route not stated): 0.35 L/kg | off-target effects in the safety screen assay [2]: neglectable effects | radioactivity concentration, blood content into the heart [3]: 38.3 μg equivalents DF2755A g^−1 of tissue | radioactivity concentration, kidney as a whole [3]: 29.6 μg equivalents DF2755 A/g^−1 of tissue | radioactivity concentration, kidney cortex [3]: 33.2 μg equivalents DF2755A g^−1 of tissue | radioactivity concentration, liver [3]: 41.7 μg equivalents DF2755A g^−1 of tissue | radioactivity concentration, small intestine contents [3]: 180 μg equivalents DF2755A g^−1 of tissue | radioactivity concentration, stomach contents [3]: 51.8 μg equivalents DF2755A g^−1 of tissue | radioactivity concentration, urinary bladder contents [3]: 63.0 μg DF2755A g^−1 of tissue | radioactivity concentration, urinary bladder wall [3]: 24.3 μg equivalents DF2755A g^−1 of tissue | share of the administered dose in urinary bladder contents [3]: 8% | share of the administered dose in urinary bladder wall [3]: 3% | IC50 (CXCR2): 2.1 nM | overall mean recovery of radioactivity ([4]; 0 to 48 h post-dose): 97.67 % of dose | Mean recovery of radioactivity, feces ([4]; 0–168 h): 77.10 % dose | Mean recovery of radioactivity, total ([4]; 0–168 h): 102.06 % dose | Mean recovery of radioactivity, urine ([4]; 0–168 h): 24.13 % dose | activity in agonism and antagonism mode (TRPM8): no activity | activity in agonism and antagonism mode (Nav1.7): no activity | activity in agonism and antagonism mode (TRPV1): no activity | activity in agonism and antagonism mode (TRPA1): no activity | activity in agonism and antagonism mode (TRPV4): no activity | histological evaluated parameters (edema, hemorrhage, urothelial loss, total inflammatory score), DF2755A- versus vehicle-treated rats (urinary bladder): no significant difference
